Reference: patent US12371454B2, “Cyclic peptide compound having Kras inhibitory action” (priority 2019, dated 2025)
Positions of bridges follow the written chain, without caps; N, C: chain ends. Non-standard residues stand in square brackets, D forms with d. Residues, ends and D or L forms follow the SMILES beside them. *: point of attachment. hPhe(3,5-F2-4-CF3) = N[C@@H](CCc1cc(F)c(C(F)(F)F)c(F)c1)C(=O)O; hPhe(3-Cl-4-CF3) = N[C@@H](CCc1ccc(C(F)(F)F)c(Cl)c1)C(=O)O; NMePhe(4-CF3) = CN[C@@H](Cc1ccc(C(F)(F)F)cc1)C(=O)O; NMeAbu(4,4,4-F3) = CN[C@@H](CC(F)(F)F)C(=O)O; NMeAla(cPent) = CN[C@@H](CC1CCCC1)C(=O)O; NMeGly(cPent) = CN[C@H](C(=O)O)C1CCCC1; NMeCha = CN[C@@H](CC1CCCCC1)C(=O)O; NMeChg = CN[C@H](C(=O)O)C1CCCCC1; NMeD = CN[C@@H](CC(=O)O)C(=O)O; NMeL = CN[C@@H](CC(C)C)C(=O)O; NMeV = CN[C@H](C(=O)O)C(C)C; d(β3hA) = C[C@@H](N)CC(=O)O; NMeAbu = CC[C@H](NC)C(=O)O; NMeS = CN[C@@H](CO)C(=O)O; Morpholide = C1CN(*)CCO1; NMeA = CN[C@@H](C)C(=O)O; Piperidide = C1CCN(*)CC1; Pyrrolidide = C1CCN(*)C1; Ac5c = NC1(C(=O)O)CCCC1; Aze = O=C(O)[C@@H]1CCN1; Aib = CC(C)(N)C(=O)O; Sar = CNCC(=O)O; Propyl = CCC*

What was measured:
[1] = target: T1, Kras and SOS1 (biotin-tagged human Kras loaded with GDP, His-tagged human SOS1) (Homo sapiens, UniProt P01116, G12D); test: Protein-protein interaction inhibition between Kras and SOS1 (KrasGl2D-SOS PPI) using AlphaScreen; format: binding; conditions: AlphaScreen; biotin-tagged human Kras loaded with GDP, His-tagged human SOS1; read-out: KRAS G12D-SOS PPI IC50
T1 construct: made in house; host or cells: E. coli (stated for Kras only)
T1 sequence (P01116 1-188 isoform P01116-2 G12D): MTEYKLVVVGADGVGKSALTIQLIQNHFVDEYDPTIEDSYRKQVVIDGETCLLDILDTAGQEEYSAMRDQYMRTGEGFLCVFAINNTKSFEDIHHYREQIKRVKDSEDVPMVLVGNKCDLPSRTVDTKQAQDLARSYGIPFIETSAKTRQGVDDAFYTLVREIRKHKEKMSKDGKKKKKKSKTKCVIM
Method in brief: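 Energy transfer from nickel-chelate donor beads bound to His-SOS1 to streptavidin acceptor beads bound to biotin-Kras, expressed in E. coli and loaded with GDP after purification, was monitored. Donors were excited at 680 nm; singlet oxygen reaching acceptors gave emission read at 520-620 nm.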

[2] = test system: Human pancreatic cancer cell line AsPC-1; test: Measurement of AsPC-1 cell growth inhibition (AsPC-1 CGI); format: cell-based; conditions: 96 h
Method in brief: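 AsPC-1 cells in 15% FBS RPMI-1640 were exposed to test compound for 96 hours at 37° C, with CellTiter-Glo as endpoint.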

CCCOC[C@H]1C(=O)N(C)CC(=O)N[C@@H](CCc2ccc(C(F)(F)F)c(Cl)c2)C(=O)N2CCC[C@H]2C(=O)NC2(CCCC2)C(=O)N(C)[C@@H](C2CCCCC2)C(=O)N(C)[C@H](C(=O)N2CCCC2)CC(=O)N(C)[C@@H](CC(F)(F)F)C(=O)N[C@@H]([C@@H](C)CC)C(=O)N(C)CC(=O)N(C)CC(=O)N1C [Compound 735] ([NMeAbu(4,4,4-F3)]I[Sar][Sar][NMeS](Propyl)[Sar][hPhe(3-Cl-4-CF3)]P[Ac5c][NMeChg][NMeD]-Pyrrolidide; lactam N-11) showed an IC50 [1] of 0.44 nM and an IC50 [2] of 50 to 100 nM.
CC[C@H](C)[C@@H]1NC(=O)[C@H](CC(C)C)N(C)C(=O)C[C@@H](C)NC(=O)[C@H](CC(C)C)N(C)C(=O)C(C)(C)NC(=O)[C@H](CC(C)C)N(C)C(=O)[C@H](CCc2cc(F)c(C(F)(F)F)c(F)c2)NC(=O)CN(C)C(=O)[C@H](CC2CCCCC2)N(C)C(=O)CN(C)C(=O)CN(C)C1=O [Compound 119] (cyclo([Aib][NMeL][d(β3hA)][NMeL]I[Sar][Sar][NMeCha][Sar][hPhe(3,5-F2-4-CF3)][NMeL])) showed an IC50 [1] of 39 nM and an IC50 [2] of 100 to 500 nM.
CC[C@H](C)[C@@H]1NC(=O)[C@H](CC(C)C)N(C)C(=O)C[C@@H](C)NC(=O)[C@H](C2CCCC2)N(C)C(=O)C2(CCCC2)NC(=O)[C@@H]2CCCN2C(=O)[C@H](CCc2ccc(C(F)(F)F)c(Cl)c2)NC(=O)CN(C)C(=O)[C@H](Cc2ccc(C(F)(F)F)cc2)N(C)C(=O)CN(C)C(=O)CN(C)C1=O [Compound 1524] (cyclo([Ac5c][NMeGly(cPent)][d(β3hA)][NMeL]I[Sar][Sar][NMePhe(4-CF3)][Sar][hPhe(3-Cl-4-CF3)]P)) was tested, and the IC50 [1] was 1.9 nM and the IC50 [2] was 50 to 100 nM.
For CCCOC[C@H]1C(=O)N2CC[C@H]2C(=O)N(C)[C@@H](CC2CCCCC2)C(=O)N(C)CC(=O)N[C@@H](CCc2ccc(C(F)(F)F)c(Cl)c2)C(=O)N2CCC[C@H]2C(=O)NC2(CCCC2)C(=O)N(C)[C@@H](C(C)C)C(=O)N(C)[C@H](C(=O)N2CCCCC2)CC(=O)N(C)[C@@H](CC(C)C)C(=O)N[C@@H]([C@@H](C)CC)C(=O)N1C [Compound 809] ([NMeL]I[NMeS](Propyl)[Aze][NMeCha][Sar][hPhe(3-Cl-4-CF3)]P[Ac5c][NMeV][NMeD]-Piperidide; lactam N-11), the IC50 [1] was 47 nM and the IC50 [2] was 100 to 500 nM.
With CC[C@H](C)[C@@H]1NC(=O)[C@H](CC(C)C)N(C)C(=O)C[C@@H](C)NC(=O)[C@H](CC(C)C)N(C)C(=O)C2(CCCC2)NC(=O)[C@@H]2CCCN2C(=O)[C@H](CCc2cc(F)c(C(F)(F)F)c(F)c2)NC(=O)CN(C)C(=O)[C@H](CC2CCCCC2)N(C)C(=O)CN(C)C(=O)CN(C)C1=O [Compound 364] (cyclo([Ac5c][NMeL][d(β3hA)][NMeL]I[Sar][Sar][NMeCha][Sar][hPhe(3,5-F2-4-CF3)]P)) the IC50 [1] was 9.7 nM and the IC50 [2] was 100 to 500 nM.
Compound CC[C@H](C)[C@@H]1NC(=O)[C@H](CC(F)(F)F)N(C)C(=O)C[C@@H](C(=O)N2CCCC2)N(C)C(=O)[C@H](C2CCCCC2)N(C)C(=O)C2(CCCC2)NC(=O)[C@@H]2CCCN2C(=O)[C@H](CCc2cc(F)c(C(F)(F)F)c(F)c2)NC(=O)CN(C)C(=O)[C@H](CC2CCCCC2)N(C)C(=O)CN(C)C(=O)CN(C)C1=O [Compound 1228] ([NMeAbu(4,4,4-F3)]I[Sar][Sar][NMeCha][Sar][hPhe(3,5-F2-4-CF3)]P[Ac5c][NMeChg][NMeD]-Pyrrolidide; lactam N-11) has an IC50 [1] of 0.59 nM and an IC50 [2] of 20 to 50 nM.
In the case of CC[C@H](C)[C@@H]1NC(=O)[C@H](CC(F)(F)F)N(C)C(=O)C[C@@H](C(=O)N2CCOCC2)N(C)C(=O)[C@H](C2CCCCC2)N(C)C(=O)C2(CCCC2)NC(=O)[C@@H]2CCCN2C(=O)[C@H](CCc2ccc(C(F)(F)F)c(Cl)c2)NC(=O)CN(C)C(=O)[C@H](CC2CCCC2)N(C)C(=O)CN(C)C(=O)CN(C)C1=O [Compound 367] ([NMeAbu(4,4,4-F3)]I[Sar][Sar][NMeAla(cPent)][Sar][hPhe(3-Cl-4-CF3)]P[Ac5c][NMeChg][NMeD]-Morpholide; lactam N-11), the IC50 [1] is reported as 0.6 nM and the IC50 [2] is reported as 100 to 500 nM.
Work on CC[C@H](C)[C@@H]1NC(=O)[C@H](CC(C)C)N(C)C(=O)C[C@@H](C(=O)N2CCCCC2)N(C)C(=O)[C@H](C(C)C)N(C)C(=O)C2(CCCC2)NC(=O)[C@@H]2CCCN2C(=O)[C@H](CCc2ccc(C(F)(F)F)c(Cl)c2)NC(=O)CN(C)C(=O)[C@H](C2CCCC2)N(C)C(=O)[C@@H]2CCN2C(=O)[C@H](C)N(C)C1=O [Compound 1825] ([NMeL]I[NMeA][Aze][NMeGly(cPent)][Sar][hPhe(3-Cl-4-CF3)]P[Ac5c][NMeV][NMeD]-Piperidide; lactam N-11) yielded an IC50 [1] of 3.4 nM and an IC50 [2] of 100 to 500 nM.
Work on CC[C@H](C)[C@@H]1NC(=O)[C@H](CC)N(C)C(=O)C[C@@H](C(=O)N2CCCC2)N(C)C(=O)[C@H](C2CCCCC2)N(C)C(=O)C2(CCCC2)NC(=O)[C@@H]2CCCN2C(=O)[C@H](CCc2ccc(C(F)(F)F)c(Cl)c2)NC(=O)CN(C)C(=O)[C@H](CC2CCCC2)N(C)C(=O)CN(C)C(=O)CN(C)C1=O [Compound 1931] ([NMeAbu]I[Sar][Sar][NMeAla(cPent)][Sar][hPhe(3-Cl-4-CF3)]P[Ac5c][NMeChg][NMeD]-Pyrrolidide; lactam N-11) yielded an IC50 [1] of 0.56 nM and an IC50 [2] of 100 to 500 nM.
